Test results: patent US9724334B1, “Method for treating a neurodegenerative disease or depression comprising administering derivatives of 2-amino-2-(1-dodecyl-1H-1,2,3-triazol-4-yl)propane-1,3-diol” (Kyungpook National University Industry-Academic Cooperation …, priority 2016, dated 2017)

Key:
[1] = target: T1, ASM (acid sphingomyelinase) (Homo sapiens, UniProt P17405); assay: ASM activity in fibroblasts derived from Alzheimer's disease patients (PS1 fibroblasts); type: cell-based; parameters: dose or concentration left out as unconfirmed; settings: for change of ASM activity: PS1 fibroblasts with increased ASM activity, versus untreated PS1 fibroblasts
T1 construct: fibroblasts (PS1 fibroblasts) derived from Alzheimer's disease patients, followed by the measurement of the change of ASM activity; host or cells: human fibroblast cell lines (PS1, from Alzheimer's disease patients)
T1 sequence (P17405 47-631): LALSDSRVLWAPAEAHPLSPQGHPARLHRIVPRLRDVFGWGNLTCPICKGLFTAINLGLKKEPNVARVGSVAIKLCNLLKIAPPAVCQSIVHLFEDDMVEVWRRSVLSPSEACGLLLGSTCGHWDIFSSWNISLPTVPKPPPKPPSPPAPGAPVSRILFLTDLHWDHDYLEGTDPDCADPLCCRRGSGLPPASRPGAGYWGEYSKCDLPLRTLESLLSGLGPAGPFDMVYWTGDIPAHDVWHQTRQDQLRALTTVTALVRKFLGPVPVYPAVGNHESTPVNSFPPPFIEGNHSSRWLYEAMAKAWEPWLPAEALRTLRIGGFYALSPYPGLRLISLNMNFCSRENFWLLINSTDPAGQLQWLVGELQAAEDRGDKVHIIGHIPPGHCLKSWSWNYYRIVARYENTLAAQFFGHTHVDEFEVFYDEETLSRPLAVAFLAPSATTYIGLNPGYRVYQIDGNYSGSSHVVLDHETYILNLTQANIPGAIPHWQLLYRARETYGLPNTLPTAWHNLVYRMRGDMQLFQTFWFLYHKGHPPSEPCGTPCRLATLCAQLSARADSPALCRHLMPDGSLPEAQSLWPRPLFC
Description: Human fibroblast cell lines (normal and PS1) were obtained from Coriell Institute and cultured in DMEM containing 15% FBS under the condition of 5% CO2 at 37° C. Subsequently, the cell lines were treated with the ASM inhibitory compound of the Chemical Formula 1, amitriptyline (AMI) and FTY720, followed by measuring the change of ASM activity. The concentration levels of ASM were measured as follows. Specifically, a microliter mouse plasma, brain tissue and 3 μl of fibroblast samples were mixed with ASM activity buffer and stored at 37° C. 114 μl of ethanol was added to terminate the hydrolysis reaction, followed by centrifugation. 30 μl of the supernatant was transferred to a glass vial, of which 5 μl was applied to the UPLC system. The ASM concentration levels were quantified by comparison with Bodipy (aminoacetaldehyde) conjugated with sphingomyelin and ceramide. Extraction and quantification of the sphingomyelin and ceramide were performed by extracting lipids from known method samples and resuspending the dried lipid extract in 25 μl of 0.2% Igepal CA-630 (Sigma-Aldrich). Each lipid level was quantified using the UPLC system. In order to confirm the ASM inhibitory effect of the compound developed according to the present invention, the ASM inhibitory compound of the Chemical Formula 2, AMI and FTY720 were treated […] concentration, respectively, in the fibroblasts (PS1 fibroblasts) derived from Alzheimer's disease patients, followed by the measurement of the change of ASM activity.

[2] = target: T2, ASM (acid sphingomyelinase) (Mus musculus, UniProt Q04519); assay: ASM concentration levels in plasma and brain tissue of APP/PS1 mice after feeding via drinking water; type: in vivo; settings: 100 mg/kg/day via drinking water; for ASM concentration level in brain tissues / ASM concentration level in plasma: 9.5 month-old APP/PS1 mice, versus unfed APP/PS1 mice
T2 construct: from tissue; host or cells: plasma and brain tissue of APP/PS1 transgenic mice (C57BL/6 background)
T2 sequence (Q04519 45-627): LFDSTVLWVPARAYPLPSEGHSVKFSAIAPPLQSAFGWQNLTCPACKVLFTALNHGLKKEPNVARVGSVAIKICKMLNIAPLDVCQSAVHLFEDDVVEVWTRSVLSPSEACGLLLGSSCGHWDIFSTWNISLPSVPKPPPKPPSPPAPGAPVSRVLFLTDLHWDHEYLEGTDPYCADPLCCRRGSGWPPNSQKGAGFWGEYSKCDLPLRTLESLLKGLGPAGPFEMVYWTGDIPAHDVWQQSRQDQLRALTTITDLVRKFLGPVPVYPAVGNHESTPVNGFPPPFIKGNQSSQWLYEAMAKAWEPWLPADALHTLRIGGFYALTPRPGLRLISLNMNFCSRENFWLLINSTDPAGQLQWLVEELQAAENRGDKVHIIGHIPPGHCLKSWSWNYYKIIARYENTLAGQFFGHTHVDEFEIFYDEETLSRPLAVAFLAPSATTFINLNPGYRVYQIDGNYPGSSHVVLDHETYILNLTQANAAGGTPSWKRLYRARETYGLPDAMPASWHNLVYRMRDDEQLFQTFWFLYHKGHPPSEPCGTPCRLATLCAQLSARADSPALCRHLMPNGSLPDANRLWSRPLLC
Excerpt: IACUC (Kyungpook National University Institutional Animal Care and Use Committee) approved the present mouse experiment. A transgenic mouse line overexpressing APPswe (hAPP695swe) or PS1 (presenilin-1M146V) was used based on C57BL/6 mouse (Charles River, UK) (hereinafter, APP mouse: APPswe-overexpressing mouse, PS1 mouse: presenilin-1M146V overexpressing mouse; GlaxoSmithKline). To confirm the therapeutic effect of the novel ASM inhibitory compounds, the novel ASM inhibitory compound or AMI were fed via drinking water at a dose of 100 mg/kg/day to mice at 5.5 months of age. Three months after the feeding, behavioral analysis on the mice was performed, followed by sampling of mouse brain tissues (FIG. 3). The concentration levels of ASM were measured as follows. Specifically, a microliter mouse plasma, brain tissue and 3 μl of fibroblast samples were mixed with ASM activity buffer and stored at 37° C. 114 μl of ethanol was added to terminate the hydrolysis reaction, followed by centrifugation. 30 μl of the supernatant was transferred to a glass vial, of which 5 μl was applied to the UPLC system. The ASM concentration levels were quantified by comparison with Bodipy (aminoacetaldehyde) conjugated with sphingomyelin and ceramide. Extraction and quantification of the sphingomyelin and ceramide were performed by extracting lipids from known method samples and resuspending the dried lipid extract in 25 μl of 0.2% Igepal CA-630 (Sigma-Aldrich). Each lipid level was quantified using the UPLC system. Using an experimental animal model APP/PS1 mouse for Alzheimer's disease patients, ASM concentration levels in plasma and brain tissues were measured after administration of AMI, which is the most widely used as an ASM inhibitor, and the novel ASM inhibitory compound of the Chemical Formula 2.

APP/PS1 mice [3] = assay: Amyloid-β deposition in brain of APP/PS1 mice (thioflavin S staining, Aβ40 and Aβ42 immunofluorescence); type: in vivo, mouse; settings: 100 mg/kg/day via drinking water; for Aβ40 deposition / Aβ42 deposition: brain tissue immunofluorescence; for Aβ40 deposition / Aβ42 deposition / fibrillary Aβ deposition (thioflavin S): versus APP/PS1 mice; for fibrillary Aβ deposition (thioflavin S): cerebral cortex and hippocampus
Excerpt: IACUC (Kyungpook National University Institutional Animal Care and Use Committee) approved the present mouse experiment. A transgenic mouse line overexpressing APPswe (hAPP695swe) or PS1 (presenilin-1M146V) was used based on C57BL/6 mouse (Charles River, UK) (hereinafter, APP mouse: APPswe-overexpressing mouse, PS1 mouse: presenilin-1M146V overexpressing mouse; GlaxoSmithKline).
(§1) To confirm the therapeutic effect of the novel ASM inhibitory compounds, the novel ASM inhibitory compound or AMI were fed via drinking water at a dose of 100 mg/kg/day to mice at 5.5 months of age. Three months after the feeding, behavioral analysis on the mice was performed, followed by sampling of mouse brain tissues (FIG. 3).
(§2) After fixing the cerebrum and hippocampus of the test mice, 0.5% thioflavin S (Sigma-Aldrich), anti-20G10 antibodies (Mouse, 1:1000) against Aβ, 42 and anti-G30 antibodies (rabbit, 1:1000) against Aβ, 40, anti-GFAP antibodies (rabbit, 1:500, DAKO) were cultured together. The above sites were analyzed using a laser scanning confocal microscope equipped with Fluoview SV1000 imaging software (Olympus FV1000, Japan) or an Olympus BX51 microscope. Percentage of area of stained area to total tissue area was quantified and analyzed using Metamorph software (Molecular Devices).
In order to confirm the effect of the novel ASM inhibitory compound of the Chemical Formula 2 on the lesion of Alzheimer's disease, the ASM inhibitory compound of the Chemical Formula 2 and AMI were administered orally for four months, respectively, as shown in FIG. 3.
To begin with, the profile of Aβ of Alzheimer's disease was identified. First, according to known methods in the art, the cerebral cortex and hippocampus of the mice were stained with thioflavin S (ThioS), confirming the fibrillary amyloid-β deposition. In addition, amyloid-β deposition was confirmed by carrying out the Aβ40 and Aβ42 immunofluorescence.

APP/PS1 mice [4] = assay: Morris water maze (MWM), learning and memory in APP/PS1 mice; type: in vivo, mouse; settings: 100 mg/kg/day via drinking water; for spatial memory, cognitive and memory formation disability: versus unfed APP/PS1 mice
Description: as §1
(§3) Morris water maze (MWM) and fear conditioning experiments were conducted to identify potential effects on learning and memory. For MWM, the mice were learned the task four times a day for 10 days, followed by the removal of the platform at the 11th day and subsequently a probe trial. On the first day of the fear conditioning, the mice were placed in the conditioning chamber and subjected to sound stimulation (10 kHz, 70 dB) and electrical stimulation (0.3 mA, 1s). On the second day, their memory was checked without stimulation in the same conditioning chamber as on the first day. On the third day, memory tests were conducted for fear when only sound stimulation was given in another conditioning chamber. Open field tests and dark & light tests were conducted to assess activity and anxiety. In the open field test, the mice were placed in a square box for 10 minutes to measure their overall activity and time spent wandering the wall and center. In the dark & light test, the mice were placed in a rectangular box composed of a dark box and a bright box for 10 minutes to measure the time spent in each box, the number of round trips, and the time when the mice entered the bright box for the first time.
In order to determine the potential effect of the novel ASM inhibitory compound of the present invention on learning and cognition in the animal models of Alzheimer's disease, the MWM (Morris water maze) and the fear conditioning test were performed, respectively.

APP/PS1 mice [5] = assay: Fear conditioning test in APP/PS1 mice; type: in vivo, mouse; settings: 100 mg/kg/day via drinking water
Description: as §1
as §3, with “In the dark & light test, the mice were placed in a rectangular box composed of a dark box and a bright box for 10 minutes to measure the time spent in each box, the number of round trips, and the time when the mice entered the bright box for the first time.” left out

APP/PS1 mice [6] = assay: Open field test and dark & light test (activity and anxiety) in APP/PS1 mice; type: in vivo, mouse; settings: 100 mg/kg/day via drinking water, versus APP/PS1 mice
Description: as §1
as §3, with “In the dark & light test, the mice were placed in a rectangular box composed of a dark box and a bright box for 10 minutes to measure the time spent in each box, the number of round trips, and the time when the mice entered the bright box for the first time.” left out

APP/PS1 mice [7] = assay: Astrocytes (GFAP immunofluorescence) in cerebral cortex of APP/PS1 mice; type: in vivo, mouse; settings: 100 mg/kg/day via drinking water, versus APP/PS1 mice
Description: as §1, §2
(§4) In order to determine the effect of the novel ASM inhibitory compounds according to the present invention on the change of nerve inflammation in the APP/PS1 mice, the present inventors observed a change in astrocytes of their brains.

APP/PS1 mice [8] = assay: Real-time quantitative PCR of inflammatory cytokines (TNF-α, IL-1b, IL-6) in brain of APP/PS1 mice; type: in vivo, mouse; settings: mRNA, cerebral cortex, 100 mg/kg/day via drinking water, versus wild-type
Description: as §1
Real-time quantitative PCR was used to measure the expression levels of inflammatory cytokines (TNF-α, IL-1b, and IL-6). Total RNAs were extracted from brain tissues using RNeasy Plus mini kit (Qiagen, Korea, Ltd.), while cDNAs were synthesized from 5 μg of total RNAs using a kit from Clontech (Mountain View, Calif.). Also, using Corbett research RG-6000 real-time PCR instrument, PCR was performed at 95° C. for 10 minutes; 95° C. for 10 seconds; 58° C. for 15 seconds; 72° C. for 20 seconds as one cycle, while real-time quantitative PCR was performed in which 40 cycles were repeated.
as §4

APP/PS1 mice [9] = assay: Western blotting of autophagy-related proteins (LC3, Beclin-1, cathepsin D, p62) in brain tissue of APP/PS1 mice; type: in vivo, mouse
Description: as §1
Expression of the following genes was analyzed using Western blotting. First, antibodies against LC3, Becklin-1, p62 (All of them were purchased from Cell Signaling Technologies), Cathepsin D (R&D systems) and β-actin (Santa Cruz) were used, while densitometric quantification was performed using ImageJ Software (US National Institutes of Health).
In order to verify the mechanism of the ASM inhibitory compound of the Chemical Formula 2 in the autophagy-related pathways upon its administration, the conversion of LC3-I into LC3-II, and the expression levels of Beclin-1, cathepsin D and p62 in the brain tissue samples of the WT mice, APP/PS1 mice, and APP/PS1 mice treated with the ASM inhibitory compound of the Chemical Formula 2 which were 9.5 months old, respectively, were confirmed by Western blotting experiments.

[10] = 9.5 months old APP/PS1 mice, treated versus untreated

Compound	change of ASM activity [1]	ASM concentration level in brain tissues [2]	ASM concentration level in plasma [2]	Aβ40 deposition (APP/PS1 mice [3])	Aβ42 deposition (APP/PS1 mice [3])	fibrillary Aβ deposition (thioflavin S) (APP/PS1 mice [3])	spatial memory, cognitive and memory formation disability (APP/PS1 mice [4])	further results
CCCCCCCCc1ccc(CCC(N)(CO)CO)cc1 [FTY720, reference compound]	markedly reduced							
CCCCCCCCCCCCn1cc(C(N)(CO)CO)nn1 [Chemical Formula 2, 2-amino-2-(1-dodecyl-1H-1,2,3-triazol-4-yl)propane-1,3-diol]	markedly reduced	remarkably low	remarkably low	significantly lower	significantly lower	significantly lower	improved	ASM inhibitory effect compared with the other substances (AMI, FTY720) ([1]; PS1 fibroblasts): more remarkably effective in inhibiting ASM activity than the other substances; ASM inhibition in plasma and brain tissues compared with AMI ([2]; APP/PS1 mice): more significantly effective in inhibiting ASM activity than AMI; amyloid-β deposition compared with mice treated with AMI (APP/PS1 mice [3]): more remarkably reduced; cognitive improvement compared with AMI (APP/PS1 mice [4]): more pronounced; memory in the fear conditioning test (contextual and tone tasks) (APP/PS1 mice [5]): effect of improving the memory; activity and anxiety (APP/PS1 mice [6]): significantly improved; activity of astrocytes (GFAP) (APP/PS1 mice [7]): significantly decreased; gene expression of IL-1b (APP/PS1 mice [8]): restored to their normal levels; gene expression of IL-6 (APP/PS1 mice [8]): restored to their normal levels; gene expression of TNF-α (APP/PS1 mice [8]): restored to their normal levels; conversion of LC3-I to LC3-II (APP/PS1 mice [9]; [10]): decreased; expression level of cathepsin D (APP/PS1 mice [9]; [10]): decreased; expression level of p62 (APP/PS1 mice [9]; [10]): decreased; expression of Beclin-1 (APP/PS1 mice [9]; 9.5 months old, WT, APP/PS1 and treated APP/PS1 mice compared): little difference
CN(C)CCC=C1c2ccccc2CCc2ccccc21 [AMI, amitriptyline, reference compound]	markedly reduced	remarkably low	remarkably low	significantly lower	significantly lower	significantly lower	improved	
